Assay results from patent publication US20230000852A1, “Treatment of Dermal Cytokine Storm Syndromes” (Bridge Pharma, Inc., priority 2021, published 2023).

Columns and labels:
IL-1β = test: PHA-induced IL-1β release from human leucocytes (buffy coats); format: cell-based; details: Leucocyte, 30 min pre-incubation, PHA 5 μg/ml 16 hours
Protocol: (§1) The objective of this study was to assess the ability of norketotifen to inhibit cytokine release from stimulated human leucocytes.
(§2) The study was conducted in two phases. The first phase included optimization of the test methodology and including dose-range finding studies, using buffy coats from 3 human donors, stimulated with phytohemagglutinin (PHA). Following optimization of the test conditions, a final protocol was issued. In the ensuing Main Study, white blood cells (buffy coats) from 5 healthy human donors were stimulated with PHA, 5 μg/ml. The concentrations of the test article and the duration of exposure were optimized to obtain acceptable dose-response ratios. Thus, the inhibitory effects of three concentrations of NK and one concentration of ketotifen were evaluated in the Main Study. The buffy coats containing white blood cells from 5 male human donors were resuspended in assay media and were pre-incubated for 30 min with either vehicle/saline, ketotifen 4.3 μg/ml (10 μM) and norketotifen 0.4 μg/ml, 4.1 μg/ml and 41 μg/ml (1.0; 10 and 100 μM). Following these preincubations, the white blood cells were stimulated for 16 hours with PHA, 5 μg/ml. The cell system supernatants were then harvested and stored frozen pending analyses.
(§3) The concentration of the test articles had to be high in this ex vivo study since the test kit used a high concentration of the agonist PHA (5 μg/ml) and a long exposure time (16 hrs).

IL-6 = test: PHA-induced IL-6 release from human leucocytes (buffy coats); format: cell-based; details: Leucocyte, 30 min pre-incubation, PHA 5 μg/ml 16 hours
Protocol: as §1, §2, §3

TNFα = test: PHA-induced TNFα release from human leucocytes (buffy coats); format: cell-based; details: Leucocyte, 30 min pre-incubation, PHA 5 μg/ml 16 hours
Protocol: as §1, §2, §3

IL-2 = test: PHA-induced IL-2 release from human leucocytes (buffy coats); format: cell-based; details: Leucocyte, 30 min pre-incubation, PHA 5 μg/ml 16 hours
Protocol: as §1, §2, §3

MCP-1 = test: PHA-induced MCP-1 release from human leucocytes (buffy coats); format: cell-based; details: Leucocyte, 30 min pre-incubation, PHA 5 μg/ml 16 hours
Protocol: as §1, §2, §3

[1] = tested on: IL31-induced (SC) pruritus; test: IL-31-induced pruritus in mice; format: in vivo; details: at the dose tested
Protocol: To determine if NK inhibits IL31-induced pruritus in mice. Studies have now been performed, using murine IL31 as a pruritogen. Mice were dosed orally with a test article exactly 60 minutes before murine IL31 at a dose of 1.0 μg/30 gram body weight was injected subcutaneously into a previously depilated area on the rostral part of the back of mice. IL31 was dissolved in phosphate buffered saline (PBS) with 0.1% bovine serum albumin (BSA). The injected volume was 0.1 ml/mouse. The bouts of scratching were counted for 120 min, starting 30 min after the injection of IL31. The bouts of scratching were counted by trained laboratory personnel who were unaware of the pretreatment of the animals. Oclacitinib (Apoquel®) is a Janus kinase inhibitor that is the worldwide market leader for oral treatment of atopic dermatitis in dogs.

sedation = details: dogs, oral; U.S. Pat. No. 8,557,846; cited from earlier work

O=C1Cc2ccccc2C(=C2CCNCC2)c2ccsc21 (racemic) [NK, norketotifen]
inhibition at 1 µM (IL-1β; 1 uM): 0%
inhibition at 10 µM (IL-1β; 10 uM): 16.2%
inhibition at 100 µM (IL-1β; 100 uM): 57%
inhibition at 1 µM (IL-6; 1 uM): 0%
inhibition at 10 µM (IL-6; 10 uM): 33.1%
inhibition at 100 µM (IL-6; 100 uM): 88.2%
inhibition at 1 µM (TNFα; 1 uM): 4.54%
inhibition at 10 µM (TNFα; 10 uM): 42.2%
inhibition at 100 µM (TNFα; 100 uM): 89.1%
inhibition at 1 µM (IL-2; 1 uM): 0%
inhibition at 10 µM (IL-2; 10 uM): 46.6%
inhibition at 100 µM (IL-2; 100 uM): 93.5%
inhibition at 1 µM (MCP-1; 1 uM): 2.04%
inhibition at 10 µM (MCP-1; 10 uM): 14.3%
inhibition at 100 µM (MCP-1; 100 uM): 84.5%
Effect on IL-31-induced pruritus (in words) [1]: decreased IL-31-induced pruritus
Sedative side effects (sedation): free from sedative side effects
